Results on two compounds are retold here after US10907212B2, “Inhibitors of cell adhesion” (Regents of the University of Minnesota, priority 2016, dated 2021).

Entries after “also recorded” stand apart in the source; their conditions may differ. Where no end group is shown, it is not given here.

Experiment [1] concerns nectin 4 protein on NIH:OVCAR-5 cells. Briefly: Effect of peptides on anti-Nectin-4 antibody binding to cells as determined by flow cytometry. It counts as cell-based, human. In short, it runs like this:
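NIH:OVCAR-5 cells, which natively express nectin 4, were incubated for 30 min with soluble peptide at 150 μg/mL in DMSO. Cells were then stained with mouse anti-nectin 4 or IgG control, followed by biotinylated anti-mouse and streptavidin-APC. Antibody binding relative to untreated control was measured by flow cytometry.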
In general terms: Flow cytometry measures light scatter and fluorescence of single cells or particles in a stream.

The subject of experiment [2] is adhesion of NIH:OVCAR5-N4-over cells to recombinant human Nectin-1 extracellular domain. As to the kind of experiment: Inhibition of NIH:OVCAR5-N4-over cell adhesion to recombinant Nectin-1 by synthetic nectin peptides. Type of experiment: cell-based. To be noted: 150 μg/ml peptide; 0.5 μg/well Nectin-1; 30 min adhesion; listed as N1-P20. The procedure:
Black, clear-bottom 96-well microtiter plates (Corning, Imported Costar, Corning, N.Y.) were coated with recombinant human Nectin-1 extracellular domain (R&D Systems), recombinant human Nectin-4 extracellular domain (R&D Systems), mouse laminin (Invitrogen™), or bovine serum albumin (BSA; Probumin Diagnostic Grade, MilliPore) diluted in PBS. Covered plates were incubated overnight at 37° C. in a humidified incubator. After washing with PBS plus Ca^2+/Mg^2+ containing 2 mg/ml ovalbumin (Sigma-Aldrich), the plates were blocked for 1 hat 37° C. with 1% BSA in PBS without Ca^2+/Mg^2+. Confluent monolayers of NIH:OVCAR5 cells or NIH:OVCAR5-N4-over cells were detached with Accutase, and then filtered through a 40 μm cell strainer (BD Biosciences, San Jose, Calif.) to remove cell aggregates. The single cells were stained with CellTracker Green CMFDA (5-chloromethylfluorescein diacetate; Invitrogen™) according to the manufacturer's protocol. […] Plates were vigorously washed four times and read in a BioTek Synergy fluorescent microplate reader (BioTek, Winooski, V A). […]
Microtiter plates coated with recombinant Nectin-1 as described above were pre-incubated for 30 min at room temperature with 150 μg/ml Nectin-4 peptides in PBS in triplicate. CMFDA-stained NIH:OVCAR5-N4-over cells were then added to the wells and cell adhesion was quantified as described above. […]

For experiment [3], the system named is NIH:OVCAR5 control shRNA and NIH:OVCAR5-VB3 cells. Briefly: Spheroid formation of cells pretreated with mitomycin C. It counts as cell-based, human. To be noted: data not shown. The procedure:
Spheroids were formed from the NIH:OVCAR5 cell lines described above using the liquid overlay method. One milliliter of a single cell suspension was seeded at a concentration of 50,000 cells/ml in OptiMEM® media, into 24-well tissue culture plates coated with 0.5% Seakem agarose (in complete RPMI-1640). Plates were incubated at 37° C. in a humidified incubator with 5% CO2. At various time points up to 5 days, the plates were removed from the incubator and the spheroids were photographed with a Nikon CoolPix digital camera mounted on an Olympus CK2 inverted microscope with a 4× objective. The size of the spheroids was determined using the measure tool in Adobe Photoshop. The largest spheroids were quantified (20-90 spheroids/well), in a minimum of 8 wells, for a total of >300 spheroids per cell type.
Ovarian cancer is unique in that tumor cells commonly grow within the peritoneal cavity as free floating multi-cellular aggregates (spheroids) in the ascites fluid. […] Spheroids formed by both cell types appeared tightly aggregated, in contrast to previous results with the cell adhesion molecule claudin-4, where cells depleted of claudin-4 formed spheroids more slowly and the spheroids formed had increased paracellular permeability. […]

On to “NWYLQRMDVKLTCK-NH2 (listed as Homo sapiens) [Peptide 49]”, for which the “N4 MFI/IgG MFI” value in experiment [1] (Run Four, Control 4 = 9.387504873) is recorded as 10.36. The “IgG MFI” value in experiment [1] (Run Four, IgG control primary antibody, Control 4 = 1,026) stood at 29486. Besides, the “nectin-4 antibody binding, percent of control” value in experiment [1] (Run Four, antibody binding relative to Control 4 = 100) worked out at 3206. Besides, in experiment [1] (flow cytometry, 150 μg/mL peptide), the “nectin-4 antibody binding compared to untreated control cells (in words)” value is given as “erroneous/outlier”. The “effect on cell adhesion to Nectin-1 (in words)” value in experiment [2] is reported as “to a greater extent than the mAb against Nectin-1; also recorded: complete inhibition”.
Take `CO[C@@]12[C@H](COC(N)=O)C3=C(C(=O)C(C)=C(N)C3=O)N1C[C@@H]1N[C@@H]12` [mitomycin C]: the “aggregation of cells in presence of mitomycin C” value in experiment [3] (NIH:OVCAR5-VB3 cells with Nectin-4 knocked down by shRNA) is given as “No difference was observed”. Moreover, the “spheroid size versus untreated control cells” value in experiment [3] (shRNA control NIH:OVCAR5 cells, after 24 h) is recorded as “smaller than the untreated control cells”.
